The values below come from patent publication US7700353B2, “Compositions and methods for inducing apoptosis in tumor cells” (E-P Therapeutics, Inc., priority 1998, dated 2010).

For one test, the system named is 293GP and MCF-7 cells. Nature of the test: Effect of RNA/protein synthesis inhibitors on Ea-4 induced morphological change. To be noted: 24 hours. The test is classed as cell-based, human. The procedure:
To study the effects of α-aminitin and cycloheximide, known inhibitors of RNA and protein synthesis, respectively, on morphological changes induced by rtEa-4-peptide, about 1-2×10^5 of ZR-75-1 and 293GP cells, re-suspended in their respective basal medium without FBS, were plated in a 6-well culture chamber. Prior to plating the cells, an acid-washed coverslip was placed in each well of the culture chamber. Each culture was treated with recombinant trout Ea-4-peptide at 0.8 µM, and with either α-aminitin at 10 µg/mL (an RNA synthesis inhibitor) or with cycloheximide at 1.0 µg/mL (a protein synthesis inhibitor). The cell cultures were incubated at 37° C. under a humidified atmosphere of 5% CO2. Coverslips were removed from the culture chamber 24 hours after initiation of the treatment and observed under an Olympic inverted microscope equipped with differential interference phase contrast objective lenses (final magnification, 200×). The viability of the inhibitor-treated cells was further determined by a dye extrusion assay.
To determine whether the morphological changes induced by the Ea-4 peptides requires synthesis of new proteins or of RNA, 293GP and MCF-7 cells were cultured under the same conditions as described above. Ea-4 peptide-induced morphological changes in 293GP and MCF-7 cells were abolished by treatment with cycloheximide or α-aminitin (FIG. 4).

For test [1], the system named is neuroblastoma SK-N-F1 cells. In words: Soft agar colony formation (hEb peptide). It counts as cell-based, human. The following applies: 5 nM. The procedure: The effect of hEb-peptide on in vitro colony formation was tested in the presence or absence of either the mature hlGF-I or fetal bovine serum (FIG. 12). Human neuroblastoma SK-N-F1 cells (10^4) were mixed with 0.4% soft agar supplemented with or without hEb peptide (3.2 µM), IGF-I (5 nM) and/or fetal bovine serum (2.5%), as indicated. The cell mixtures were seeded on top of a solidified basal medium DMEM/F12 (1:1) containing 0.5% agar. Medium supplemented with various peptides or serum were overlaid on top of the solidified cell layer followed by a two-week period incubation at 37° C. in a 5% CO2 humidified incubator. The percentage of cells formed into colonies with a diameter greater than 100 µm Macpherson, Tissue culture methods and applications, pp 276-80: N.Y. Academic Press, 1973) were scored in triplicate and subjected to Student t-test analysis. At least three independent assays under each treatment conditions were carried out.

The test system of test [2] is SK-N-F1 neuroblastoma cells. Nature of the test: Neurite-like process outgrowth / morphological differentiation. The test is classed as cell-based, human. The following applies: 5 nM. How it is done:
Cells under various treatment conditions were maintained at 37° C. in a 5% CO2 incubator and observed from 30 minutes to 72 hours after incubation (synthetic human Ea- and Eb-peptide were chemically synthesized at the Biotechnology Center, University of Connecticut). For treatment with synthetic hEa, hEb peptide or hlGF-I, 1×10^5 cells were plated in each well of a 12-well culture plate in DMEM/F12 (1:1) supplemented with 0.4-3.2 µM of synthetic hEa-, hEb-peptide and/or 5-10 nM of hlGF-I.
Neuroblastoma SK-N-F1 cells (10^5) were seeded into 12-well culture plates in DMEM/F12 (1:1) supplemented with 0-3.2 µM of synthetic hEb-peptide, or buffer control, and incubated at 37° C. in a 5% CO2 humidified incubator.
Cell images were taken by random sampling at various time points using a MicroMAX CCD camera (Princeton Instruments, Bozeman, Mont.). Approximately 1000 cells were analyzed from each treatment, carried out in triplicate. Cells with neurites longer than one cell body diameter (>20 µm for SK-N-F1 cells) were scored as positive neurite-bearing (Fagerstrom, et al., Cell Growth Differ., 7: 775-85, 1996; Morrione, et al., Cancer Res. 60: 2263-72, 2000). The percentage of neurite-bearing cells and the respective length of neurites were measured with reference to a stage micrometer and analyzed using the public domain NIH Image program (developed at the U.S. National Institutes of Health and available on the Internet at http://rsb.info.nih.gov/nih-image).
To further characterize the dose-response relationship and time course of hEb peptide in inducing neurite-like process outgrowth, SK-N-F1 neuroblastoma cells were treated with various amounts (0 to 3.2 µM) of hEb peptide over a course of 72 hours. Images of cells were taken by random sampling after 1 h, 6 h, 24 h, 48 h and 72 h of incubation (see FIG. 11B). The average length of neurite-like process outgrowth was measured by random sampling of more than 1000 cells at various time points. The neurite-like processes started to be visible as early as 0.5-1 hour after the addition of hEb peptide. The effect of hEb peptide in inducing neurite-like outgrowth was dose-dependent, as evident from a comparison of cells treated with 0.4 µM hEb peptide with those treated with 0.8-3.2 µM hEb peptide over 24-72 hours. The maximum effect of hEb peptide was observed 48 hours after the addition of 3.2 µM hEb peptide, with an average neurite length of 50 to 60 µm (Table 1, below).

For test [3], the system named is MCF-7, HT-29, HepG2, ZR-75-1, SK-N-F1, or HC cells. Nature of the test: Morphological change assay in tumor cell lines. The test is classed as cell-based, human and fish. To be noted: 2.5 nM, 24 hours, serum-free basal medium. How it is done: (§1) Approximately 1-2×10^5 of MCF-7, ZR-75-1, HT-29, HepG2, 293GP, HC or SK-N-F1 cells re-suspended in their respective basal medium without fetal bovine serum (FBS) were plated in a 6-well culture chamber. Prior to plating cells, an acid-washed coverslip was placed in each well of the culture chamber. Recombinant rainbow trout E-peptides (rtEa-2, rtEa-3 or rtEa-4 peptide at 0.8 µM), human IGF-I (hIGF-1, 2.5 nM) or the same amount of control protein was added to each well and the cell cultures were incubated at 37° C. under a humidified atmosphere of 5% CO2. The control protein was prepared from E. coli cells carrying the expression plasmid but without the E-peptide gene according to the purification method described by Tian et al. (1999). Coverslips were removed from the culture chamber 24 hours after initiation of the treatment and observed under an Olympic inverted microscope equipped with differential interference phase contrast objective lenses or phase contrast objective lens (final magnification, 200×). The morphological change assay was performed at least 10 times with different batches of Ea-4 peptide preparations.
Oncogenic transformed or established cancer cells derived from human and fish (MCF-7, HT-29, HepG2, ZR-75-1, SK-N-F1, or HC cells) were plated in their respective serum-free basal medium supplemented with 0.8 µM of the trout recombinant Ea-4-peptide, with the control protein, or with 2.5 nM of the recombinant hlGF-I and the cultures were examined 24 hours later under an inverted microscope equipped with differential interference phase contrast objectives. […] The rtEa-4 peptide treated cells developed several pseudopodia-like structures to establish contact with neighboring cells similar to that seen in untransformed or non-malignant cells.
Because each of these tumor cell lines obtained from ATCC contains a mixed population of tumorous and nontumorous cells, only between 25-40% of the cells from each cell line responded to induction by rtEa-4-peptide. […]

Test [4] has as its system cultured BALB/3T3 fibroblast. The following applies: recombinant peptides; cited from earlier work.
The test system of test [5] is NIH 3T3 cells and caprine mammary epithelium cells (CMEC). The following applies: recombinant peptides; cited from earlier work.
The test system of the next test is 293GP or ZR-75-1 cells. Nature of the test: Morphological change by Ea-2, Ea-3, Ea-4 peptides. It counts as cell-based, human. To be noted: 0.8 μM, 24 hours. How it is done: as §1
Cells were again cultured as described above. Twenty-four hours after treatment with 0.8 µM of E-peptides or the control protein, the cells were observed under an Olympic inverted microscope equipped with differential interference phase contrast objective lenses (200× magnification). […] To confirm this hypothesis, synthetic peptides specific to Ea-1-, Ea-2-, Ea-3- and Ea-4-peptide (Ea-1sp, Ea-2sp, Ea-3sp and Ea-4sp) specific sequence (see FIG. 1) were prepared and tested for their activities to induce morphological change in ZR-75-1 cells. For FIG. 6, cells were cultured in F12/DME medium without FBS as described above. Twenty-four hours after treatment with 0.8 µM of synthetic peptide containing Ea-1 sp, Ea-2sp, Ea-3sp or Ea-4sp specific sequence or the control protein, the cells were observed under an Olympic inverted microscope equipped with differential interference phase contrast objective lenses (200× magnification).

Consider `C[C@@H]1C[C@@H]([C@H](O)CC2CC(=O)NC(=O)C2)C(=O)[C@@H](C)C1` [cycloheximide], for which the “Ea-4 peptide-induced morphological changes” value with 293GP and MCF-7 cells (cycloheximide 1.0 μg/mL with Ea-4 0.8 μM) is “abolished”.

In the case of .alpha.-aminitin, the “Ea-4 peptide-induced morphological changes” value in the test on 293GP and MCF-7 cells (α-aminitin 10 μg/mL with Ea-4 0.8 μM) is on record as “abolished”.

For “hlGF-I: recombinant mature human insulin-like growth factor I [reference compound]”, the colony formation entry in test [1] was “strongly stimulated colony formation”. The morphological change result in test [2] is “remained rounded and formed aggregated clusters”; in test [3] it was “rounded morphology”.

Consider “rtEa-2: recombinant Ea-2 peptide of rainbow trout pro-IGF-I, 47 amino acid residues (SEQ ID NO: 4) (RSVRAQRHTDMPRTPKKPLSGHSHPSCKEVHQKNSSRGNTGGRNYRM; Oncorhynchus mykiss)”, for which the mitogenic activity result in test [4] and in test [5] was “possess mitogenic activity” throughout. Besides, in the test on 293GP or ZR-75-1 cells, the “induction of morphological change” value is “able to induce morphological change”.

B1: rtEa-3: recombinant Ea-3 peptide of rainbow trout pro-IGF-I, 62 amino acid residues (SEQ ID NO: 3) (protein)
chain: RSVRAQRHTDMPRTPKVSTAVQSVDRGTERRTAQHPDKTKPKKEVHQKNSSRGNTGGRNYRM
modifications: Oncorhynchus mykiss
Turning to B1, the mitogenic activity entry in test [4] and in test [5] was “possess mitogenic activity” in each case. Also, the “induction of morphological change” value with 293GP or ZR-75-1 cells was “failed to induce any visible morphological change”.
